For series [1] the following is noted: cited from earlier work.
Series [2] has as its system A549 lung adenocarcinoma cells. Nature of the series: A549 bromodeoxyuridine (BrdU) cytoblot antiproliferative assay of compound dilution matrix. Format: cell-based. How it is done: An 8× stock solution (128 μM) of each individual compound was made in Dulbecco's Modified Eagle Medium (DMEM) (Gibco 11995-040) containing 10% fetal bovine serum (FBS), […] L-glutamine, and 1% antibiotic/antimycotic solution. From this a 2-fold dilution series was made in DMEM. […] This compound mixture plate provided 4× concentrations of each compound that are transferred to assay plates.
The compound dilution matrix was assayed using the A549 bromodeoxyuri dine (BrdU) cytoblot method. […] Fifteen microliters of the 4× compound mixture matrix was added to each well of the plate containing the cells. The compound mixture matrix was transferred using a 16-channel pipettor (Finnpipette). In addition, control wells with paclitaxel (final concentration 4.6 μM), podophyllotoxin (9.6 μM), and quinacrine (8.5 μM) were added to each plate. Each experiment was conducted in triplicate plates.
After incubation for 48 hours at 37° C., BrdU was added to each well at a concentration of 10 μM. After 16 hours, the media was aspirated and the cells were fixed by the addition of 70% ethanol and phosphate-buffered saline (PBS) at room temperature for 1 hour. The fixative was aspirated and 2N HCl with Tween 20 (polyoxyethylene sorbitan monolaurate) was added to each well and the plates were incubated for 20 minutes at room temperature. The HCl was neutralized with a solution of 2N NaOH and the cells were washed twice with Hank's Balanced Salt Solution (HBSS) and once with PBS containing 0.5% bovine serum albumin (BSA) and 0.1% Tween 20. The wash solution was removed and mouse anti-BrdU primary antibody (PharMingen #555627) was diluted 1:1000 in PBS containing BSA, Tween 20, and secondary antibody at a dilution of 1:2000 (Amersham #NA931). The secondary antibody recognizes the mouse antibody and is conjugated to the enzyme horseradish peroxidase (HRP). After one hour of incubation, the antibody solution was removed and the cells washed once with PBS. After the PBS wash, the HRP substrate (which contains luminol, hydrogen peroxide, and an enhancer such as para-iodophenol) was added to each well. The plates were read using an LJL Analyst. All aspirations as well as the washes with PBS and HBSS were performed using a TECAN™ Power Washer 384. The amount of light output from each well indicates the amount of DNA synthesis that occurred in that well. Decreased light indicates antiproliferative action of the compounds.
Antiproliferative ratios were also calculated for paclitaxel, podophyllotoxin, and quinacrine and used for comparison.
The assays were performed as described in Example 2, above.

In series [3] the test system is nocodozole-resistant NocR and Podrii6 cell lines. Conditions: Gupta, Mol. Pharmacol. 30:142-148, 1986; cited from earlier work.
For series [4] the following is noted: mice, single intraperitoneal injection 10 mg/kg; cited from earlier work.
Where [5] appears, read: Homo sapiens, A549, read-out: inhibition of growth.

Structures are written as SMILES.

`N=C(N)c1ccc(OCCCCCOc2ccc(C(=N)N)cc2)cc1` [Pentamidine Isethionate, 4,4′-diamidino-diphenoxypentane di(β-hydroxyethanesulfonate)]: in series [1], the “solubility in ether, acetone, and chloroform” value was “insoluble”; the “solubility in water and glycerin” value is on record as “soluble”. For the same compound, in series [2] (setting [5]), the inhibition at 2 µM was 47% and the inhibition at 4 µM was found to be 55%.
`CCC[S+]([O-])c1ccc2[nH]c(NC(=O)OC)nc2c1` (stereo not shown) [Albendazole Sulfoxide, albendazole sulfoxide]: the antiproliferative ratio turned out to be 1.2 in series [2] (albendazole sulfoxide 0.5 μM + pentamidine isethionate 0 μM); 1.1 in series [2] (albendazole sulfoxide 1 μM + pentamidine isethionate 0 μM); 1.2 in series [2] (albendazole sulfoxide 2 μM + pentamidine isethionate 0 μM); 1.4 in series [2] (albendazole sulfoxide 4 μM + pentamidine isethionate 0 μM); 1.4 in series [2] (albendazole sulfoxide 8 μM + pentamidine isethionate 0 μM).
Regarding `CCCSc1ccc2[nH]c(NC(=O)OC)nc2c1` [Albendazole, albendazole], the antiproliferative ratio in series [2] (albendazole 0.03 μM + pentamidine isethionate 0 μM) turned out to be 1.3; in series [2] (albendazole 0.06 μM + pentamidine isethionate 0 μM) it was 0.9; in series [2] (albendazole 0.13 μM + pentamidine isethionate 0 μM), 1.2; in series [2] (albendazole 0.25 μM + pentamidine isethionate 0 μM) it was 1.3; in series [2] (albendazole 0.5 μM + pentamidine isethionate 0 μM), 1.2; in series [2] (albendazole 1 μM + pentamidine isethionate 0 μM) it was 1.4. The antiproliferative ratio is 2.5 in series [2] (albendazole 2 μM + pentamidine isethionate 0 μM); 2.4 in series [2] (albendazole 4 μM + pentamidine isethionate 0 μM); “increased no further” in series [2] (albendazole 4 μM + pentamidine isethionate 0 μM, listed as albendazole); 3.1 in series [2] (albendazole 8 μM + pentamidine isethionate 0 μM). Besides, the inhibition of growth in series [2] (albendazole alone, two micromolar) was found to be 60%.
On to `COC(=O)Nc1nc2ccc(C(=O)c3ccccc3)cc2[nH]1` [Mebendazole, mebendazole], for which the antiproliferative ratio stood at 1.0 in series [2] (mebendazole 0.015 μM + pentamidine isethionate 0 μM); 1.4 in series [2] (mebendazole 0.03 μM + pentamidine isethionate 0 μM); 1.0 in series [2] (mebendazole 0.06 μM + pentamidine isethionate 0 μM); 1.5 in series [2] (mebendazole 0.13 μM + pentamidine isethionate 0 μM); 1.5 in series [2] (mebendazole 0.25 μM + pentamidine isethionate 0 μM); 2.8 in series [2] (mebendazole 0.5 μM + pentamidine isethionate 0 μM). Also, the results for the antiproliferative ratio in series [2] (mebendazole 1 μM + pentamidine isethionate 0 μM), in series [2] (mebendazole 2 μM + pentamidine isethionate 0 μM) and in series [2] (mebendazole 4 μM + pentamidine isethionate 0 μM) were 3.4, 5.0 and 4.4, respectively.
As to `CC(=O)O[C@H]1C(=O)[C@@]2(C)[C@H]([C@H](OC(=O)c3ccccc3)[C@]3(O)C[C@H](OC(=O)[C@H](O)[C@@H](NC(=O)c4ccccc4)c4ccccc4)C(C)=C1C3(C)C)[C@]1(OC(C)=O)CO[C@@H]1C[C@@H]2O` [paclitaxel], in series [2] (control wells, paclitaxel final concentration 4.6 μM), the antiproliferative ratio is recorded as 4.0.
As for `CCCOc1ccc2nc(NC(=O)OC)[nH]c2c1` [Oxibendazole, oxibendazole], the antiproliferative ratio in series [2] (oxibendazole 0.015 μM + pentamidine isethionate 0 μM) is recorded as 1.0; in series [2] (oxibendazole 0.03 μM + pentamidine isethionate 0 μM), 1.1; in series [2] (oxibendazole 0.06 μM + pentamidine isethionate 0 μM), 1.0; in series [2] (oxibendazole 0.13 μM + pentamidine isethionate 0 μM), 1.1; in series [2] (oxibendazole 0.25 μM + pentamidine isethionate 0 μM) it was 1.0; in series [2] (oxibendazole 0.5 μM + pentamidine isethionate 0 μM), 1.6. Further, the antiproliferative ratio in series [2] (oxibendazole 1 μM + pentamidine isethionate 0 μM) came to 2.9; in series [2] (oxibendazole 2 μM + pentamidine isethionate 0 μM), 3.2; in series [2] (oxibendazole 4 μM + pentamidine isethionate 0 μM), 3.6.
Regarding `c1ccc2[nH]c(-c3cscn3)nc2c1` [Thiabendazole, thiabendazole], in series [3], the “cross-resistance of nocodozole-resistant cell lines” value is on record as “lack of cross-resistance”. The antiproliferative ratio in series [2] (thiabendazole 0.25 μM + pentamidine isethionate 0 μM), in series [2] (thiabendazole 0.5 μM + pentamidine isethionate 0 μM), in series [2] (thiabendazole 1 μM + pentamidine isethionate 0 μM), in series [2] (thiabendazole 2 μM + pentamidine isethionate 0 μM) and in series [2] (thiabendazole 4 μM + pentamidine isethionate 0 μM) was 1.2 in each case.
Regarding `N=C(N)c1ccc(OCCCCCOc2ccc(C(=N)N)cc2)cc1` [pentamidine], the “tissue distribution (concentration ranking)” value in series [4] was “The concentration in the kidneys was the highest, followed by that in the liver”.

What is called inhibition is the relative decrease from the control value, in per cent. A word on the inhibition of growth: it is the percentage by which the read-out fell short of the control.

The record behind these values is US6693125B2 (CombinatoRx Incorporated, priority 2001, dated 2004).
